Results taken from ChEMBL document CHEMBL6120963, “Discovery of Novel PROTAC SIRT6 Degraders with Potent Efficacy against Hepatocellular Carcinoma” (J Med Chem, 2024).
Active and inactive are the calls of the source. No cut-off for these calls is given here.

Assays:
[1] = tested on: SK-HEP1; assay: Antitumor activity against human SK-HEP1 cells xenografted in BALB/c nude mouse at 10 mg/kg treated for 28 to 30 days relative to control; type: functional; settings: time 28-30 day
[2] = target: T1, Protein cereblon/NAD-dependent protein deacylase sirtuin-6 (Homo sapiens, UniProt Q8N6T7+Q96SW2); assay: PROTAC activity at CRBN/SIRT6 in human Huh-7 cells assessed as induction of SIRT6 degradation at 1 uM incubated for 24 hrs by Western blot analysis; type: cell-based
[3] = target: T1, Protein cereblon/NAD-dependent protein deacylase sirtuin-6; assay: PROTAC activity at CRBN/SIRT6 in MLN4924-treated human SK-HEP1 cells assessed as induction of SIRT6 degradation at 2.5 uM treated for 36 hrs by Western blot analysis; type: cell-based
[4] = target: T1, Protein cereblon/NAD-dependent protein deacylase sirtuin-6; assay: PROTAC activity at CRBN/SIRT6 in human SK-HEP1 cells assessed as induction of SIRT6 degradation at 1 uM incubated for 24 to 36 hrs by Western blot analysis; type: cell-based; settings: time 24-36 hrs
[5] = tested on: SK-HEP1; assay: Effect on SIRT7 expression in human SK-HEP1 cells at 0.002 to 1 uM incubated for 36 hrs by Western blot analysis; type: functional, cell-based; settings: dose 0.002-1 µM
[6] = tested on: SK-HEP1; assay: Effect of CDK15 mRNA expression in human SK-HEP1 cells at 2.5 uM incubated for 36 hrs by RNA sequencing analysis; type: functional, cell-based
[7] = tested on: SK-HEP1; assay: Induction of apoptosis in human SK-HEP1 cells at 2.5 uM incubated for 72 hrs in presence of CPT by Annexin V-FITC/PI staining based flow cytometry; type: functional, cell-based
[8] = tested on: SK-HEP1; assay: Effect of GBX2 mRNA expression in human SK-HEP1 cells at 2.5 uM incubated for 36 hrs by RNA sequencing analysis; type: functional, cell-based
[9] = tested on: SK-HEP1; assay: Cytotoxicity against human SK-HEP1 cells incubated for 72 hrs by CCK8 assay; type: functional, cell-based; settings: SK-HEP1, 72 h
[10] = target: T1, Protein cereblon/NAD-dependent protein deacylase sirtuin-6; assay: PROTAC activity at CRBN/SIRT6 in human SK-HEP1 cells assessed as induction of SIRT6 degradation at 1 uM pretreated for 36 hrs followed by compound washout measured for 36 hrs by Western blot analysis; type: cell-based
[11] = target: T1, Protein cereblon/NAD-dependent protein deacylase sirtuin-6; assay: PROTAC activity at CRBN/SIRT6 in human SK-HEP1 cells assessed as induction of SIRT6 degradation at 0.02 to 5 uM incubated for 36 hrs by Western blot analysis; type: cell-based; settings: dose 0.02-5 µM
[12] = tested on: SK-HEP1; assay: Effect of SIRT6 mRNA expression in human SK-HEP1 cells at 2.5 uM incubated for 36 hrs by RT-qPCR analysis; type: functional, cell-based
[13] = tested on: SK-HEP1; assay: Inhibition of cell proliferation of human SK-HEP1 cells xenografted in BALB/c nude mouse at 10 mg/kg treated for 28 to 30 days under irradiation (3 Gy); type: functional, organism-based; settings: time 28-30 day
[14] = target: T1, Protein cereblon/NAD-dependent protein deacylase sirtuin-6; assay: PROTAC activity at CRBN/SIRT6 in human SK-HEP1 cells assessed as reduction in density of SIRT6 foci incubated for about 36 hrs by immunofluorescence based analysis; type: cell-based; settings: dose <= 5.0 µM
[15] = Toxicity in BALB/c nude mouse xenografted with human SK-HEP1 cells assessed as pathological damage in lungs at 10 mg/kg treated for 28 to 30 days by H and E staining based analysis; type: organism-based; settings: in vivo, time 28-30 day
[16] = Toxicity in BALB/c nude mouse xenografted with human SK-HEP1 cells assessed as pathological damage in kidney at 10 mg/kg treated for 28 to 30 days in presence of sorafenib by H and E staining based analysis; type: organism-based; settings: in vivo, time 28-30 day
[17] = tested on: SK-HEP1; assay: Downregulation of FBXO44 expression in human SK-HEP1 cells at 2.5 uM incubated for 36 hrs in presence of MG132; type: functional, cell-based
[18] = tested on: SK-HEP1; assay: Effect of SAP18 mRNA expression in human SK-HEP1 cells at 2.5 uM incubated for 36 hrs by RNA sequencing analysis; type: functional, cell-based
[19] = tested on: SK-HEP1; assay: Effect of SIRT7 mRNA expression in human SK-HEP1 cells at 2.5 uM incubated for 36 hrs by RT-qPCR analysis; type: functional, cell-based
[20] = target: T1, Protein cereblon/NAD-dependent protein deacylase sirtuin-6; assay: PROTAC activity at CRBN/SIRT6 in human SK-HEP1 cells assessed as hook effect upto 5 uM incubated for 36 hrs by Western blot analysis; type: cell-based
[21] = target: T1, Protein cereblon/NAD-dependent protein deacylase sirtuin-6; assay: In vivo PROTAC activity of CRBN/SIRT6 in human SK-HEP1 cells xenografted in BALB/c nude mouse assessed as induction of SIRT6 degradation at 10 mg/kg treated for 28 to 30 days; type: functional, organism-based; settings: time 28-30 day
[22] = target: T1, Protein cereblon/NAD-dependent protein deacylase sirtuin-6; assay: PROTAC activity at CRBN/SIRT6 in human SK-HEP1 cells assessed as increase in H3K9Ac level incubated for 36 hrs by Western blot analysis; type: cell-based; settings: dose 0.002-1 µM
[23] = target: T1, Protein cereblon/NAD-dependent protein deacylase sirtuin-6; assay: PROTAC activity at CRBN/SIRT6 in human SK-HEP1 cells assessed as disruption of CHD4 recruitment to DSB sites at 2.5 uM incubated for 36 hrs followed by sorafenib treatment for 4 hrs by Western blot analysis; type: cell-based; settings: time 40.0 hrs
[24] = Toxicity in BALB/c nude mouse xenografted with human SK-HEP1 cells assessed as histopathological abnormalities in spleen at 10 mg/kg treated for 28 to 30 days under irradiation (3 Gy) by H and E staining based analysis; type: organism-based; settings: in vivo, time 28-30 day
[25] = target: T1, Protein cereblon/NAD-dependent protein deacylase sirtuin-6; assay: PROTAC activity at CRBN/SIRT6 in human SK-HEP1 cells assessed as reduction in fluorescence intensity of SIRT6 labeling incubated for about 36 hrs by immunofluorescence based analysis; type: cell-based
[26] = Toxicity in BALB/c nude mouse xenografted with human SK-HEP1 cells assessed as pathological damage in heart at 10 mg/kg treated for 28 to 30 days in presence of sorafenib by H and E staining based analysis; type: organism-based; settings: in vivo, time 28-30 day
[27] = target: T1, Protein cereblon/NAD-dependent protein deacylase sirtuin-6; assay: PROTAC activity at CRBN/SIRT6 in human SK-HEP1 cells assessed as disruption of CHD4 recruitment to DSB sites at 2.5 uM incubated for 36 hrs followed by VP16 treatment for 4 hrs by Western blot analysis; type: cell-based; settings: time 40.0 hrs
[28] = Toxicity in BALB/c nude mouse xenografted with human SK-HEP1 cells assessed as pathological damage in heart at 10 mg/kg treated for 28 to 30 days under irradiation (3 Gy) by H and E staining based analysis; type: organism-based; settings: in vivo, time 28-30 day
[29] = Toxicity in BALB/c nude mouse xenografted with human SK-HEP1 cells assessed as pathological damage in liver at 10 mg/kg treated for 28 to 30 days under irradiation (3 Gy) by H and E staining based analysis; type: organism-based; settings: in vivo, time 28-30 day
[30] = tested on: SK-HEP1; assay: Effect of CSTB mRNA expression in human SK-HEP1 cells at 2.5 uM incubated for 36 hrs by RNA sequencing analysis; type: functional, cell-based
[31] = Toxicity in BALB/c nude mouse xenografted with human SK-HEP1 cells assessed as pathological damage in liver at 10 mg/kg treated for 28 to 30 days by H and E staining based analysis; type: organism-based; settings: in vivo, time 28-30 day
[32] = tested on: SK-HEP1; assay: Downregulation of TEDC1 expression in human SK-HEP1 cells at 2.5 uM incubated for 36 hrs; type: functional, cell-based
[33] = tested on: SK-HEP1; assay: Induction of apoptosis in human SK-HEP1 cells at 2.5 uM preincubated for 36 hrs followed by irradiation (3 Gy) by Annexin V-FITC/PI staining based flow cytometry; type: functional, cell-based
[34] = tested on: SK-HEP1; assay: Effect of FN1 mRNA expression in human SK-HEP1 cells at 2.5 uM incubated for 36 hrs by RNA sequencing analysis; type: functional, cell-based

T1 sequence (Q8N6T7 2-355 limits assumed): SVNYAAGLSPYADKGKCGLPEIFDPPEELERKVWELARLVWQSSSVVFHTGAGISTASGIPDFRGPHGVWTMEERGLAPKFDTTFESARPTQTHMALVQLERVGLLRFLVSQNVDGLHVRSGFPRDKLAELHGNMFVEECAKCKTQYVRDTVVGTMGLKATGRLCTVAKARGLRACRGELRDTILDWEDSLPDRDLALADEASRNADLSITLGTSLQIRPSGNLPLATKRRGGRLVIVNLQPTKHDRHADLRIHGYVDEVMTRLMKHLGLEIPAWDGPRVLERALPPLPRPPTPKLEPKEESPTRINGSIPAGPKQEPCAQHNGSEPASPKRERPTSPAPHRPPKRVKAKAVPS
T1 sequence (Q96SW2 whole entry partner): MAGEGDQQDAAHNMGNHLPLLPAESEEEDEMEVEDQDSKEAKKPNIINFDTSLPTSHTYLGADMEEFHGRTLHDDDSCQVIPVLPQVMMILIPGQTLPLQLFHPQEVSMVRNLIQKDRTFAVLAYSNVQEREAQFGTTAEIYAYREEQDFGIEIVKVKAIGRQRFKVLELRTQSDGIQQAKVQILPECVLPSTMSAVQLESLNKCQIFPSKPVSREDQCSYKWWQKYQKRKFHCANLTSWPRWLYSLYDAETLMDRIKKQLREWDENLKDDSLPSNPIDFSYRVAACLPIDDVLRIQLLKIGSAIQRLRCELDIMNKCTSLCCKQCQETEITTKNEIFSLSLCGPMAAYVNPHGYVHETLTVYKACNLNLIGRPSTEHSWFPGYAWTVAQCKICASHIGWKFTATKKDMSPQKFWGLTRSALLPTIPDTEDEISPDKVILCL

Activity [3]: inactive
Activity [11]: Active
Activity [14]: Dose-dependent-effect
Activity [20]: inactive
Activity [21]: Active
Activity [22]: Dose-dependent-effect
Activity [23]: Active
Activity [25]: Dose-dependent-effect
Activity [27]: Active
SMILES: Nc1cc(N2CCN(CC3CCN(c4cc5c(cc4F)C(=O)N(C4CCC(=O)NC4=O)C5=O)CC3)CC2)ccc1[N+](=O)[O-] (centres undefined)
T/C [1]: 39.6%
Activity [2]: Active; Reached A Plateau After 36 Hrs Of Treatment
Activity [4]: Active; Reached A Plateau After 36 Hrs Of Treatment, But A Dramatic Reduction Observed
Activity [5]: No effect
Activity [6]: Active
Activity [7]: Active
Activity [8]: Active
IC50 [9]: 1510 nM
Activity [10]: Not active; Sirt6 Level Slowly Recovered Within 24 Hrs After Treatment
Activity [12]: Active; Only Slight Downregulation Observed
inhibition [13]: Active
Activity [15]: Non-toxic
Activity [16]: Non-toxic
Activity [17]: inactive
Activity [18]: Active
Activity [19]: No effect
Activity [24]: Non-toxic
Activity [26]: Non-toxic
Activity [28]: Non-toxic
Activity [29]: Non-toxic
Activity [30]: Active
Activity [31]: Non-toxic
Activity [32]: Active
Activity [33]: Active; Significant Effect Was Observed Before Being Exposed To Ir
Activity [34]: Active
